Test results reported in the kinase profiling compilation of Christmann-Franck et al. (2016).

Legend:
Assay in all cases: radiometric filter-binding kinase assay, Kinase HotSpot
Conditions in all cases: compound 0.5 µM; ATP 10 µM
PRKACA (human) = PRKACA (human) (UniProt P17612)
CAMK2B (human) = CAMK2B (human) (UniProt Q13554)
CDK4 CCND3 (human) = CDK4 CCND3 (human) (UniProt P30281+P11802)
MAP3K7 TAB1 (human) = MAP3K7 TAB1 (human) (UniProt O43318+Q15750)
FGFR3 (human) = FGFR3 (human) (UniProt P22607)
MST4 (human) = MST4 (human) (UniProt Q9P289)
NEK4 (human) = NEK4 (human) (UniProt P51957)
WNK3 (human) = WNK3 (human) (UniProt Q9BYP7)
PRKD2 (human) = PRKD2 (human) (UniProt Q9BZL6)
TGFBR2 (human) = TGFBR2 (human) (UniProt P37173)
HIPK2 (human) = HIPK2 (human) (UniProt Q9H2X6)
Sequence of HIPK2 (human) (Q9H2X6 whole entry, looked up): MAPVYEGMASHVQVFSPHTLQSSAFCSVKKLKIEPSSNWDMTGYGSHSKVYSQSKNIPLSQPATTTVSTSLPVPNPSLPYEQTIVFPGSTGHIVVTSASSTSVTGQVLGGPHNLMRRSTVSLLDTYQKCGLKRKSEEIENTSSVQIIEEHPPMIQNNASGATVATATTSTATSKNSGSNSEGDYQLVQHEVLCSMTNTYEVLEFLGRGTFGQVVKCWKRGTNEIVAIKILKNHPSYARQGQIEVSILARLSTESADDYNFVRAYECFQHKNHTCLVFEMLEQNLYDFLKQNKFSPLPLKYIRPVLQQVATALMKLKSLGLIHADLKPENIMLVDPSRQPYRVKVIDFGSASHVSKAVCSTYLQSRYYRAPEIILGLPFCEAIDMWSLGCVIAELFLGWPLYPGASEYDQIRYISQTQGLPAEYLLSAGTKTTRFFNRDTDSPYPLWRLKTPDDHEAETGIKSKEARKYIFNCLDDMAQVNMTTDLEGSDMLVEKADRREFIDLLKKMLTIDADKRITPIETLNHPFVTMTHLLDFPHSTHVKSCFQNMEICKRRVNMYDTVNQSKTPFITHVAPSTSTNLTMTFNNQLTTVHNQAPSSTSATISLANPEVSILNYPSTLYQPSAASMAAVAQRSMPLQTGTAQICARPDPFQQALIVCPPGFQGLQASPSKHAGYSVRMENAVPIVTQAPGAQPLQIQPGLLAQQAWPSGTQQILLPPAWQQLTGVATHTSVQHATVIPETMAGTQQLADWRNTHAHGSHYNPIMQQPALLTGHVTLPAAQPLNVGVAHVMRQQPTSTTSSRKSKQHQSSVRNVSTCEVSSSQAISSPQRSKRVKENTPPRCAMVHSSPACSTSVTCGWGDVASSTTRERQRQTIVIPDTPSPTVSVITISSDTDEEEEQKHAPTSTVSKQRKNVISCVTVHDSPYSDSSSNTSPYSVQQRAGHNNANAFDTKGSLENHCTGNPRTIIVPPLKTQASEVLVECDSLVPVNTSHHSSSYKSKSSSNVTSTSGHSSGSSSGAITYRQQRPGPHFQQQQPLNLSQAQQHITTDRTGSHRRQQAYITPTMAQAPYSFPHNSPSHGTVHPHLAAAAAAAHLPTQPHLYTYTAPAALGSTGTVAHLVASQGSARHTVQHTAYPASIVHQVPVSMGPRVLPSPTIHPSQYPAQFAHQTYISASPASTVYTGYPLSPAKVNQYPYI

CDK1 CCNB1 (human) = CDK1 CCNB1 (human) (UniProt P06493+P14635)
GSK3A (human) = GSK3A (human) (UniProt P49840)
ULK1 (human) = ULK1 (human) (UniProt O75385)
CDK9 CCNK (human) = CDK9 CCNK (human) (UniProt O75909+P50750)
MARK4 (human) = MARK4 (human) (UniProt Q96L34)
ERBB4 (human) = ERBB4 (human) (UniProt Q15303)
TBK1 (human) = TBK1 (human) (UniProt Q9UHD2)
RPS6KA5 KD2 (human) = RPS6KA5 KD2 (human) (UniProt O75582)
PDGFRA (human) = PDGFRA (human) (UniProt P16234)
PIM3 (human) = PIM3 (human) (UniProt Q86V86)
CDK2 CCNA2 (human) = CDK2 CCNA2 (human) (UniProt P24941+P20248)
EPHA1 (human) = EPHA1 (human) (UniProt P21709)
NEK9 (human) = NEK9 (human) (UniProt Q8TD19)
VRK1 (human) = VRK1 (human) (UniProt Q99986)
CHUK (human) = CHUK (human) (UniProt O15111)
FLT3 (human) = FLT3 (human) (UniProt P36888)
ACVRL1 (human) = ACVRL1 (human) (UniProt P37023)
MATK (human) = MATK (human) (UniProt P42679)
Sequence of MATK (human) (P42679 whole entry, looked up): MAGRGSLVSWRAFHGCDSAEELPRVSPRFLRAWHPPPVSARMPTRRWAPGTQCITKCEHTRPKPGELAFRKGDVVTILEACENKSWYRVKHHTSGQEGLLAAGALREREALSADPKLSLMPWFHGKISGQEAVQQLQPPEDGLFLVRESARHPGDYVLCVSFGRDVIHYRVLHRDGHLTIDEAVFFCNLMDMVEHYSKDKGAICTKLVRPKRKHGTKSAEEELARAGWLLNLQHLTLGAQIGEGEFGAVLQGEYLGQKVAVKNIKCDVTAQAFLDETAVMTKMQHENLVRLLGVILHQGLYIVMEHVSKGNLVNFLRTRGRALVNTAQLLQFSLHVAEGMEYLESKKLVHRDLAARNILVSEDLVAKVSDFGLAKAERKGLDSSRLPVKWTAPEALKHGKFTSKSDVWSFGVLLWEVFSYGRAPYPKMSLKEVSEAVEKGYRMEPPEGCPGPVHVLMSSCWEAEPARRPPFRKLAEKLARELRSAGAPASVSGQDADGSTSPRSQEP

ROCK2 (human) = ROCK2 (human) (UniProt O75116)
Sequence of ROCK2 (human) (O75116 whole entry, looked up): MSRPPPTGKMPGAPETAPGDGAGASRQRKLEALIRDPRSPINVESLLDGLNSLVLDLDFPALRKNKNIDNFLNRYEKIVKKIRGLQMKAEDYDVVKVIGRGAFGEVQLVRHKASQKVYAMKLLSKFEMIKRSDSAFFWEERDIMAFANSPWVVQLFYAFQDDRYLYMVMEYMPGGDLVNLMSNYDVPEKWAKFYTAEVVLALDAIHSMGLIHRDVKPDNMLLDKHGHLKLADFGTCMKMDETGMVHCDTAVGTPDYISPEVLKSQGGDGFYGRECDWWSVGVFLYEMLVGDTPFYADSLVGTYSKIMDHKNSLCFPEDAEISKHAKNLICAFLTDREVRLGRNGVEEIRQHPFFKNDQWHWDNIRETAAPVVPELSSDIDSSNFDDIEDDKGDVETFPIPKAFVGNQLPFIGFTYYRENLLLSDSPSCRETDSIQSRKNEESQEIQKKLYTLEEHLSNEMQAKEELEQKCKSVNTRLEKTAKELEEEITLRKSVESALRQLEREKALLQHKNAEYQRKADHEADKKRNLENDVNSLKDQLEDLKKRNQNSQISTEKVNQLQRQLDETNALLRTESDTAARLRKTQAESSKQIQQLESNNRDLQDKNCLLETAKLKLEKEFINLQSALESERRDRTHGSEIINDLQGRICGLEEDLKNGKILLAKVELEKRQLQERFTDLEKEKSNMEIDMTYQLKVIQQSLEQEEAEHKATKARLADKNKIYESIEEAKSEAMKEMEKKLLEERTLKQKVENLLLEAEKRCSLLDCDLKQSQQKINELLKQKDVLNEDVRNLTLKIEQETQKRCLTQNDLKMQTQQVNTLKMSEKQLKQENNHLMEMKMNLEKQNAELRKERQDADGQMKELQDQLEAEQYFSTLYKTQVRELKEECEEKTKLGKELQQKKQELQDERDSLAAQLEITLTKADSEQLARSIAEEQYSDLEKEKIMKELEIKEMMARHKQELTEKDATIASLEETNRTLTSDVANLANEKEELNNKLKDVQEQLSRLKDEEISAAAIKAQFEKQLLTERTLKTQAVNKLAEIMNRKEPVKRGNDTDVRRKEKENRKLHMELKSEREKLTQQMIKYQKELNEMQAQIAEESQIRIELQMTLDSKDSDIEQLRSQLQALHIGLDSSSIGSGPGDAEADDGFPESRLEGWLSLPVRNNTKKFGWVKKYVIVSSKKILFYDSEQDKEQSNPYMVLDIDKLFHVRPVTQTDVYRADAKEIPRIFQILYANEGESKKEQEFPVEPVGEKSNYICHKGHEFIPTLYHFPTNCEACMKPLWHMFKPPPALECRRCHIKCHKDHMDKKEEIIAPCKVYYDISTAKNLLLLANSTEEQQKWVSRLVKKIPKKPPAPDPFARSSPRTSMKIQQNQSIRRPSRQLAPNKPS

KDR (human) = KDR (human) (UniProt P35968)
MAP4K5 (human) = MAP4K5 (human) (UniProt Q9Y4K4)
CHEK1 (human) = CHEK1 (human) (UniProt O14757)
RPS6KA4 KD2 (human) = RPS6KA4 KD2 (human) (UniProt O75676)
Sequence of RPS6KA4 KD2 (human) (O75676 whole entry, looked up): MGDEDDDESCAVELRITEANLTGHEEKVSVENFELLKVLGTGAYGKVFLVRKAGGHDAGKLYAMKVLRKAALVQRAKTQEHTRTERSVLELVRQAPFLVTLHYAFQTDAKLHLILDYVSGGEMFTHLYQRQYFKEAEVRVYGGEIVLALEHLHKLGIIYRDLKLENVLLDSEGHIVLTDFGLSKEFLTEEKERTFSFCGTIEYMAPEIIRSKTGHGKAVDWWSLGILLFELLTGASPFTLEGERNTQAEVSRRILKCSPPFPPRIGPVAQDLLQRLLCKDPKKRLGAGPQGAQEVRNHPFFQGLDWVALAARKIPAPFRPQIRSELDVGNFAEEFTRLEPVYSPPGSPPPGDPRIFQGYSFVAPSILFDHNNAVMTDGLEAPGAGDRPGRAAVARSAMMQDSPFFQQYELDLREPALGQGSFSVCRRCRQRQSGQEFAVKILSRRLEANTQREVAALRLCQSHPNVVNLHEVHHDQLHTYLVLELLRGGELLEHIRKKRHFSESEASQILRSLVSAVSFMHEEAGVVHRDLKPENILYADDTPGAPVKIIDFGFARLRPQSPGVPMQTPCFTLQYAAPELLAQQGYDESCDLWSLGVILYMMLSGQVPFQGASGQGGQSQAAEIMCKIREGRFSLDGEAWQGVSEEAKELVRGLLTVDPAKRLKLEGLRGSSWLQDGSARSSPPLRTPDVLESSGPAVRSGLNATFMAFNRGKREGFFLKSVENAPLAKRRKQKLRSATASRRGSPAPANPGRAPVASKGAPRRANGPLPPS

PRKG2 (human) = PRKG2 (human) (UniProt Q13237)
PHKG2 (human) = PHKG2 (human) (UniProt P15735)
Sequence of PHKG2 (human) (P15735 whole entry, looked up): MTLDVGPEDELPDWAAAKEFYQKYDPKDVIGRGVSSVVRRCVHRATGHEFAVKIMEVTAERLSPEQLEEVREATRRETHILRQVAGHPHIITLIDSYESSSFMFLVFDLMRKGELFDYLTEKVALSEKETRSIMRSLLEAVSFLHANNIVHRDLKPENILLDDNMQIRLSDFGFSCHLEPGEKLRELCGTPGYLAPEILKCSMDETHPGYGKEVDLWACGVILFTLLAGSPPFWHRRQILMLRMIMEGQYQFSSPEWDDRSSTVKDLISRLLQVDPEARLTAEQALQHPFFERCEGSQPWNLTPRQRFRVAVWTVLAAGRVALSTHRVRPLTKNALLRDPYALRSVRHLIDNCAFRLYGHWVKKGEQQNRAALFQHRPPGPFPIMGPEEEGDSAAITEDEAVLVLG

AXL (human) = AXL (human) (UniProt P30530)
ABL2 (human) = ABL2 (human) (UniProt P42684)
CHEK2 (human) = CHEK2 (human) (UniProt O96017)
LIMK1 (human) = LIMK1 (human) (UniProt P53667)
CSNK1E (human) = CSNK1E (human) (UniProt P49674)
Sequence of CSNK1E (human) (P49674 whole entry, looked up): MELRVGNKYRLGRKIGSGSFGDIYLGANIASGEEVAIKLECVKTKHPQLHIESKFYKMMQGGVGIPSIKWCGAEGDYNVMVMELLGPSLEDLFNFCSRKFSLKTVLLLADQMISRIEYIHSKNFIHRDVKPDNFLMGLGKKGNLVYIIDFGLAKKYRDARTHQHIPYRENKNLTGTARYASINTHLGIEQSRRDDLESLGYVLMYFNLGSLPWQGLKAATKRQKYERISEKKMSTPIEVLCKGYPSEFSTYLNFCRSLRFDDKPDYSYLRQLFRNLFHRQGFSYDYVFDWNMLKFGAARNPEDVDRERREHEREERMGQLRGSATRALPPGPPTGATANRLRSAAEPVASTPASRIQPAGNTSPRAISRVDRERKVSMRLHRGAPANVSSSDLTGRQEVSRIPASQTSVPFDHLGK

For CSc1nc(-c2ccc(F)cc2)c(-c2ccnc(NC(C)c3ccccc3)c2)[nH]1 (configuration not stated), the residual activity (PRKACA (human)) was 96%, the residual activity (CAMK2B (human)) was 89.2% and the residual activity (CDK4 CCND3 (human)) was 111%. It also gave a residual activity (MAP3K7 TAB1 (human)) of 90.5%, a residual activity (FGFR3 (human)) of 83.7% and a residual activity (MST4 (human)) of 101%. The residual activity (NEK4 (human)) was 102%, the residual activity (WNK3 (human)) was 97.6% and the residual activity (PRKD2 (human)) was 86.4%. The residual activity (TGFBR2 (human)) was 96.5%, the residual activity (HIPK2 (human)) was 99.9% and the residual activity (CDK1 CCNB1 (human)) was 106%. The residual activity (GSK3A (human)) was 94.1%, the residual activity (ULK1 (human)) was 110% and the residual activity (CDK9 CCNK (human)) was 91.1%. For the same molecule, the residual activity (MARK4 (human)) was 74.6%, the residual activity (ERBB4 (human)) was 98.4% and the residual activity (TBK1 (human)) was 92%. The residual activity (RPS6KA5 KD2 (human)) was 97.3%, the residual activity (PDGFRA (human)) was 102% and the residual activity (PIM3 (human)) was 95.5%. For the same molecule, the residual activity (CDK2 CCNA2 (human)) was 96.8%, the residual activity (EPHA1 (human)) was 89.8% and the residual activity (NEK9 (human)) was 89.4%. The residual activity (VRK1 (human)) was 94.1%, the residual activity (CHUK (human)) was 98.4% and the residual activity (FLT3 (human)) was 92.8%. The residual activity (ACVRL1 (human)) was 92.2%, the residual activity (MATK (human)) was 87% and the residual activity (ROCK2 (human)) was 95.3%. The residual activity (KDR (human)) was 83.5%, the residual activity (MAP4K5 (human)) was 85.6% and the residual activity (CHEK1 (human)) was 101%. It also gave a residual activity (RPS6KA4 KD2 (human)) of 96.5%, a residual activity (PRKG2 (human)) of 102% and a residual activity (PHKG2 (human)) of 125%. For the same molecule, the residual activity (AXL (human)) was 109%, the residual activity (ABL2 (human)) was 95.7% and the residual activity (CHEK2 (human)) was 94.2%. The residual activity (LIMK1 (human)) was 103% and the residual activity (CSNK1E (human)) was 72%.
Molecule COc1ccc(-c2cnc3c(-c4ccsc4)cnn3c2)cc1 has a residual activity (PRKACA (human)) of 96.1%, a residual activity (CAMK2B (human)) of 88.7% and a residual activity (CDK4 CCND3 (human)) of 82.9%. For the same molecule, the residual activity (MAP3K7 TAB1 (human)) was 97.6%, the residual activity (FGFR3 (human)) was 81.5% and the residual activity (MST4 (human)) was 95.7%. The residual activity (NEK4 (human)) was 80%, the residual activity (WNK3 (human)) was 92.7% and the residual activity (PRKD2 (human)) was 97.7%. The residual activity (TGFBR2 (human)) was 84.1%, the residual activity (HIPK2 (human)) was 91.2% and the residual activity (CDK1 CCNB1 (human)) was 87.2%. It also gave a residual activity (GSK3A (human)) of 92.5%, a residual activity (ULK1 (human)) of 79% and a residual activity (CDK9 CCNK (human)) of 76.9%. It also gave a residual activity (MARK4 (human)) of 92.7%, a residual activity (ERBB4 (human)) of 94.2% and a residual activity (TBK1 (human)) of 77.7%. For the same molecule, the residual activity (RPS6KA5 KD2 (human)) was 90.3%, the residual activity (PDGFRA (human)) was 74.8% and the residual activity (PIM3 (human)) was 100%. For the same molecule, the residual activity (CDK2 CCNA2 (human)) was 83%, the residual activity (EPHA1 (human)) was 91.5% and the residual activity (NEK9 (human)) was 90.3%. For the same molecule, the residual activity (VRK1 (human)) was 105%, the residual activity (CHUK (human)) was 94.5% and the residual activity (FLT3 (human)) was 11.1%. For the same molecule, the residual activity (ACVRL1 (human)) was 76.4%, the residual activity (MATK (human)) was 99.4% and the residual activity (ROCK2 (human)) was 90.4%. The residual activity (KDR (human)) was 79.8%, the residual activity (MAP4K5 (human)) was 60.3% and the residual activity (CHEK1 (human)) was 90.8%. It also gave a residual activity (RPS6KA4 KD2 (human)) of 98.7%, a residual activity (PRKG2 (human)) of 92% and a residual activity (PHKG2 (human)) of 92.3%. The residual activity (AXL (human)) was 96.7%, the residual activity (ABL2 (human)) was 63.4% and the residual activity (CHEK2 (human)) was 89.1%. For the same molecule, the residual activity (LIMK1 (human)) was 71.2% and the residual activity (CSNK1E (human)) was 86.3%.
